Experimental data from US20240208992A1, “MACROCYCLES AS CFTR MODULATORS” (Idorsia Pharmaceuticals Ltd, priority 2021, published 2024).

Molecular target: human F508del-CFTR (Homo sapiens, UniProt P13569, DEL508-508)
Experiment: F508del-CFTR cell surface expression (corrector activity), DiscoveRx ß-galactosidase complementation chemiluminescence assay in recombinant U2OS cell line;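 further: U2OS cells co-expressing ProLink-tagged F508del-CFTR and a membrane-anchored enzyme acceptor, where more surface CFTR restores β-galactosidase activity measured by chemiluminescence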
Conditions: U2OS cells, 16h compound incubation; for EC50: EC50, F508del-CFTR cell surface expression, geomean of several measurements; for Emax: U2OS, in relation to the Emax of the corrector lumacaftor (=100%), arithmetic mean

human F508del-CFTR, sequence (P13569 with tags, fused parts or gaps DEL508-508): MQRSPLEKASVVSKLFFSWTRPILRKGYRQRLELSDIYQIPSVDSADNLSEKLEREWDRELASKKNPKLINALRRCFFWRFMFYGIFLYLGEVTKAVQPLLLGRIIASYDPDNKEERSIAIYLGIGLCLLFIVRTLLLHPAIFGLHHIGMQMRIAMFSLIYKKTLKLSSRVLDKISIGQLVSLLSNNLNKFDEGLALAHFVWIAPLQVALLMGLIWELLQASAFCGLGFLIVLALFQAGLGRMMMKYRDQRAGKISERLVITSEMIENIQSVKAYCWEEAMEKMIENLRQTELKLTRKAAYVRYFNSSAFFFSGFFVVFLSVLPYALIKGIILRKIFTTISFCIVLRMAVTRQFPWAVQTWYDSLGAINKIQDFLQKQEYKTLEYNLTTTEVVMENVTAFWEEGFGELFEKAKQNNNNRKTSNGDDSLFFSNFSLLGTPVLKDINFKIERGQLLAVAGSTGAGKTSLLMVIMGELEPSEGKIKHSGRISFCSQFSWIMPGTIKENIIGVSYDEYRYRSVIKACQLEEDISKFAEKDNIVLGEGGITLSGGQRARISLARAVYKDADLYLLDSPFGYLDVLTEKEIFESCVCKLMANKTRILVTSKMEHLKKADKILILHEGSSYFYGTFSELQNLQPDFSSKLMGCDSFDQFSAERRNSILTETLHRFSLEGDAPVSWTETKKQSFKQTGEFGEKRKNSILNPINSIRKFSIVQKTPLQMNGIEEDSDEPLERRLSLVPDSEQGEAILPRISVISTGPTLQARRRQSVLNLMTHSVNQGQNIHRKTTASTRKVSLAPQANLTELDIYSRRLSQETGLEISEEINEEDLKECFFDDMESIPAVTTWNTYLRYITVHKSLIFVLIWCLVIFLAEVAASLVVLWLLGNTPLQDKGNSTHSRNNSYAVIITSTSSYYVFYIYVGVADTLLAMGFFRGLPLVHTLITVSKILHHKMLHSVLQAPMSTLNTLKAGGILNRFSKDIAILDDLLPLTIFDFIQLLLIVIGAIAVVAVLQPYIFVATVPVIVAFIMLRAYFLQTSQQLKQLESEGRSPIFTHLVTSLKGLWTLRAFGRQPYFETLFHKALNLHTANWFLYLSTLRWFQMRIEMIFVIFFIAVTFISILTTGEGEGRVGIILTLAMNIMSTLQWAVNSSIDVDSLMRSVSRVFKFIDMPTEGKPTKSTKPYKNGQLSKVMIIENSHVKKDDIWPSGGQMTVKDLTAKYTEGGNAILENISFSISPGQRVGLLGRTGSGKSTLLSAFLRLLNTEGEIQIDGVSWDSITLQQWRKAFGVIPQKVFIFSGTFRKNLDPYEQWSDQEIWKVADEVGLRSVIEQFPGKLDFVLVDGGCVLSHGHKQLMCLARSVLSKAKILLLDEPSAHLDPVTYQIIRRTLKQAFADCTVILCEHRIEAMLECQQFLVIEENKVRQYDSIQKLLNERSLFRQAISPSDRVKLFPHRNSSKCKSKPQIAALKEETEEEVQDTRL

Structure (SMILES)	EC50	Emax
COc1cc(C[C@@H]2C(=O)N[C@H](Cc3ccccc3)COc3ccc4ncc(F)cc4c3C(=O)N[C@H](C(=O)NCCc3noc(C4CC4)n3)CC(=O)N(C)[C@@H](CC(C)C)C(=O)N2C)on1 [Example 879, (3S,7S,10R,13R)-13-benzyl-N-(2-(5-cyclopropyl-1,2,4-oxadiazol-3-yl)ethyl)-20-fluoro-7-isobutyl-10-((3-methoxyisoxazol-5-yl)methyl)-6,9-dimethyl-1,5,8,11-tetraoxo-1,2,3,4,5,6,7,8,9,10,11,12,13,14-tetradecahydro-[1]oxa[4,7,10,14]tetraazacycloheptadecino[16,17-f]quinoline-3-carboxamide]	63 nM	360%
COc1cc(CCNC(=O)[C@@H]2CC(=O)N(C)[C@@H](CC(C)C)C(=O)N(C)[C@H](Cc3cc(OC)no3)C(=O)N[C@H](Cc3ccccc3)COc3ccc4ncc(F)cc4c3C(=O)N2)on1 [Example 880, (3S,7S,10R,13R)-13-benzyl-20-fluoro-7-isobutyl-N-(2-(3-methoxyisoxazol-5-yl)ethyl)-10-((3-methoxyisoxazol-5-yl)methyl)-6,9-dimethyl-1,5,8,11-tetraoxo-1,2,3,4,5,6,7,8,9,10,11,12,13,14-tetradecahydro-[1]oxa[4,7,10,14]tetraazacycloheptadecino[16,17-f]quinoline-3-carboxamide]	59 nM	359%
COc1nccc2c1C(=O)N[C@H](C(=O)NCCc1noc(C3CC3)n1)CC(=O)N(C)[C@@H](CC(C)C)C(=O)N(C)[C@H](CCc1nc(C(C)(C)C)no1)C(=O)N[C@H](Cc1ccccc1)CO2 [Example 881, (3R,6R,9S,13S)-3-benzyl-6-(2-(3-(tert-butyl)-1,2,4-oxadiazol-5-yl)ethyl)-N-(2-(5-cyclopropyl-1,2,4-oxadiazol-3-yl)ethyl)-9-isobutyl-16-methoxy-7,10-dimethyl-5,8,11,15-tetraoxo-2,3,4,5,6,7,8,9,10,11,12,13,14,15-tetradecahydropyrido[3,4-p][1]oxa[4,7,10,14]tetraazacycloheptadecine-13-carboxamide]	309 nM	337%
COc1nccc2c1C(=O)N[C@H](C(=O)NCCc1noc(C3CC3)n1)CC(=O)N(C)[C@@H](CC(C)C)C(=O)N(C)[C@H](Cn1cc(-c3ccccc3)nn1)C(=O)N[C@H](Cc1ccccc1)CO2 [Example 882, (3R,6R,9S,13S)-3-benzyl-N-(2-(5-cyclopropyl-1,2,4-oxadiazol-3-yl)ethyl)-9-isobutyl-16-methoxy-7,10-dimethyl-5,8,11,15-tetraoxo-6-((4-phenyl-1H-1,2,3-triazol-1-yl)methyl)-2,3,4,5,6,7,8,9,10,11,12,13,14,15-tetradecahydropyrido[3,4-p][1]oxa[4,7,10,14]tetraazacycloheptadecine-13-carboxamide]	473 nM	367%
COc1nccc2c1C(=O)N[C@H](C(=O)NCCc1noc(C3CC3)n1)CC(=O)N(C)[C@@H](CC(C)C)C(=O)N(C)[C@H](CCc1nc(C3CCCC3)no1)C(=O)N[C@H](Cc1ccccc1)CO2 [Example 883, (3R,6R,9S,13S)-3-benzyl-6-(2-(3-cyclopentyl-1,2,4-oxadiazol-5-yl)ethyl)-N-(2-(5-cyclopropyl-1,2,4-oxadiazol-3-yl)ethyl)-9-isobutyl-16-methoxy-7,10-dimethyl-5,8,11,15-tetraoxo-2,3,4,5,6,7,8,9,10,11,12,13,14,15-tetradecahydropyrido[3,4-p][1]oxa[4,7,10,14]tetraazacycloheptadecine-13-carboxamide]	111 nM	344%
COc1cc(CCNC(=O)[C@@H]2CC(=O)N(C)[C@@H](CC(C)C)C(=O)N(C)[C@H](CCc3nc(C4CCCC4)no3)C(=O)N[C@H](Cc3ccccc3)COc3ccnc(OC)c3C(=O)N2)on1 [Example 884, (3R,6R,9S,13S)-3-benzyl-6-(2-(3-cyclopentyl-1,2,4-oxadiazol-5-yl)ethyl)-9-isobutyl-16-methoxy-N-(2-(3-methoxyisoxazol-5-yl)ethyl)-7,10-dimethyl-5,8,11,15-tetraoxo-2,3,4,5,6,7,8,9,10,11,12,13,14,15-tetradecahydropyrido[3,4-p][1]oxa[4,7,10,14]tetraazacycloheptadecine-13-carboxamide]	96 nM	385%
CC(C)C[C@H]1C(=O)N(C)[C@H](Cn2cc(-c3ccc(F)cn3)nn2)C(=O)N[C@H](Cc2ccccc2)COc2cnc3ccc(F)cc3c2C(=O)N[C@H](C(=O)NCCc2noc(C3CC3)n2)CC(=O)N1C [Example 885, (3S,7S,10R,13R)-13-benzyl-N-(2-(5-cyclopropyl-1,2,4-oxadiazol-3-yl)ethyl)-20-fluoro-10-((4-(5-fluoropyridin-2-yl)-1H-1,2,3-triazol-1-yl)methyl)-7-isobutyl-6,9-dimethyl-1,5,8,11-tetraoxo-1,2,3,4,5,6,7,8,9,10,11,12,13,14-tetradecahydro-[1]oxa[4,7,10,14]tetraazacycloheptadecino[17,16-c]quinoline-3-carboxamide]	78 nM	328%
CC(C)C[C@H]1C(=O)N(C)[C@H](Cc2cc(C(C)(C)C)no2)C(=O)N[C@H](Cc2ccccc2)COc2cnc3ccc(F)cc3c2C(=O)N[C@H](C(=O)NCCc2noc(C3CC3)n2)CC(=O)N1C [Example 886, (3S,7S,10R,13R)-13-benzyl-10-((3-(tert-butyl)isoxazol-5-yl)methyl)-N-(2-(5-cyclopropyl-1,2,4-oxadiazol-3-yl)ethyl)-20-fluoro-7-isobutyl-6,9-dimethyl-1,5,8,11-tetraoxo-1,2,3,4,5,6,7,8,9,10,11,12,13,14-tetradecahydro-[1]oxa[4,7,10,14]tetraazacycloheptadecino[17,16-c]quinoline-3-carboxamide]	15 nM	359%
CC(C)C[C@H]1C(=O)N(C)[C@H](CCc2nc(-c3ccc(F)cn3)no2)C(=O)N[C@H](Cc2ccccc2)COc2cnc3ccc(F)cc3c2C(=O)N[C@H](C(=O)NCCc2noc(C3CC3)n2)CC(=O)N1C [Example 887, (3S,7S,10R,13R)-13-benzyl-N-(2-(5-cyclopropyl-1,2,4-oxadiazol-3-yl)ethyl)-20-fluoro-10-(2-(3-(5-fluoropyridin-2-yl)-1,2,4-oxadiazol-5-yl)ethyl)-7-isobutyl-6,9-dimethyl-1,5,8,11-tetraoxo-1,2,3,4,5,6,7,8,9,10,11,12,13,14-tetradecahydro-[1]oxa[4,7,10,14]tetraazacycloheptadecino[17,16-c]quinoline-3-carboxamide]	111 nM	340%
Cc1cc2c(c3cccnc13)C(=O)N[C@H](C(=O)NCCn1nnc(C3CC3)n1)CC(=O)N(C)[C@@H](CC(C)C)C(=O)N1CCCC[C@@H]1C(=O)N[C@H](Cc1ccccc1)CO2 [Example 888, (9S,13S,19aR,22R)-22-benzyl-N-(2-(5-cyclopropyl-2H-tetrazol-2-yl)ethyl)-13-isobutyl-2,12-dimethyl-7,11,14,20-tetraoxo-7,8,9,10,11,12,13,14,17,18,19,19a,20,21,22,23-hexadecahydro-16H-pyrido[2′,1′:6,7][1]oxa[4,7,10,14]tetraazacycloheptadecino[16,17-f]quinoline-9-carboxamide]	170 nM	410%
Cc1cc2c3c(ccc2cn1)OC[C@@H](Cc1ccccc1)NC(=O)[C@@H](Cc1nc(C(F)(F)F)no1)N(C)C(=O)[C@H](CC(C)C)N(C)C(=O)C[C@@H](C(=O)NCCc1noc(C2CC2)n1)NC3=O [Example 889, (3S,7S,10R,13R)-13-benzyl-N-(2-(5-cyclopropyl-1,2,4-oxadiazol-3-yl)ethyl)-7-isobutyl-6,9,20-trimethyl-1,5,8,11-tetraoxo-10-((3-(trifluoromethyl)-1,2,4-oxadiazol-5-yl)methyl)-1,2,3,4,5,6,7,8,9,10,11,12,13,14-tetradecahydro-[1]oxa[4,7,10,14]tetraazacycloheptadecino[16,17-f]isoquinoline-3-carboxamide]	34 nM	403%
Cc1cc2c3c(ccc2cn1)OC[C@@H](Cc1ccccc1)NC(=O)[C@@H](Cc1nc(C(F)(F)F)no1)N(C)C(=O)[C@H](CC(C)C)N(C)C(=O)C[C@@H](C(=O)NCCn1nnc(C2CC2)n1)NC3=O [Example 890, (3S,7S,10R,13R)-13-benzyl-N-(2-(5-cyclopropyl-2H-tetrazol-2-yl)ethyl)-7-isobutyl-6,9,20-trimethyl-1,5,8,11-tetraoxo-10-((3-(trifluoromethyl)-1,2,4-oxadiazol-5-yl)methyl)-1,2,3,4,5,6,7,8,9,10,11,12,13,14-tetradecahydro-[1]oxa[4,7,10,14]tetraazacycloheptadecino[16,17-f]isoquinoline-3-carboxamide]	34 nM	409%
CC(C)C[C@H]1C(=O)N(C)[C@H](Cc2nc(-c3ccc(F)cn3)no2)C(=O)N[C@H](Cc2ccccc2)COc2ccc3ncc(F)cc3c2C(=O)N[C@H](C(=O)NC[C@@H](O)c2nc(C3CC3)no2)CC(=O)N1C [Example 892, (3S,7S,10R,13R)-13-benzyl-N-((R)-2-(3-cyclopropyl-1,2,4-oxadiazol-5-yl)-2-hydroxyethyl)-20-fluoro-10-((3-(5-fluoropyridin-2-yl)-1,2,4-oxadiazol-5-yl)methyl)-7-isobutyl-6,9-dimethyl-1,5,8,11-tetraoxo-1,2,3,4,5,6,7,8,9,10,11,12,13,14-tetradecahydro-[1]oxa[4,7,10,14]tetraazacycloheptadecino[16,17-f]quinoline-3-carboxamide]	467 nM	442%
CC(C)C[C@H]1C(=O)N(C)[C@H](CC(F)F)C(=O)N[C@H](Cc2ccccc2)COc2ccc3ncc(F)cc3c2C(=O)N[C@H](C(=O)NCCn2nnc(C3CC3)n2)CC(=O)N1C [Example 893, (3S,7S,10R,13R)-13-benzyl-N-(2-(5-cyclopropyl-2H-tetrazol-2-yl)ethyl)-10-(2,2-difluoroethyl)-20-fluoro-7-isobutyl-6,9-dimethyl-1,5,8,11-tetraoxo-1,2,3,4,5,6,7,8,9,10,11,12,13,14-tetradecahydro-[1]oxa[4,7,10,14]tetraazacycloheptadecino[16,17-f]quinoline-3-carboxamide]	216 nM	394%
